# Data taken from patent US8546574B2, “Conglomerates of tenatoprazole potassium salts” (priority 2006, dated 2013).
# Columns and labels:
# [1] = cited from earlier work
# [2] = Solubility of the racemic potassium salt solvated in methanol in methanolic potassium hydroxide solution; assay type: physicochemical; details: KOH excess about 0.2 molar equivalent
# [3] = Solubility of the racemic potassium salt solvated with ethylene glycol in ethanol/ethylene glycol mixture (80% V-20% V) with potassium hydroxide excess; assay type: physicochemical; details: ethanol/ethylene glycol (80% V-20% V), KOH excess about 0.2 molar equivalent
# gastric lesions = details: compared with the other known proton-pump inhibitors; cited from earlier work
# [4] = compared with S-tenatoprazole itself and other proton-pump inhibitors; cited from earlier work
# [5] = Solubility of the racemic potassium salt solvated with ethanol in ethanolic potassium hydroxide solution; assay type: physicochemical; details: KOH excess about 0.2 molar equivalent
# [6] = relative to the other proton-pump inhibitors, for instance omeprazole or lansoprazole
compound,measurement,setting,value
COc1ccc2[nH]c([S@@+]([O-])Cc3ncc(C)c(OC)c3C)nc2n1 [S-tenatoprazole],pharmacokinetic properties,[1]; compared with the racemic mixture and the enantiomer of R configuration,significantly different
"COc1ccc2nc([S+]([O-])Cc3ncc(C)c(OC)c3C)[n-]c2n1.[K+] (racemic) [racemic mixture of the potassium salt solvated in methanol, potassium tenatoprazole dimethanolate]",Solubility (mass %),[2]; 30 ° C.,4.4 mass %
same,Solubility (mass %),[2]; 38 ° C.,5.2 mass %
same,Solubility (mass %),[2]; 40 ° C.,6.5 mass %
same,Solubility (mass %),[2]; 42 ° C.,7.7 mass %
same,Solubility (mass %),[2]; 56 ° C.,12.2 mass %
"COc1ccc2nc([S+]([O-])Cc3ncc(C)c(OC)c3C)[n-]c2n1.[K+] (racemic) [racemic mixture of the potassium salt solvated with ethylene glycol, potassium tenatoprazole ethylene glycolate]",Solubility (mass %),[3]; 28 ° C.,20.3 mass %
same,Solubility (mass %),[3]; 32 ° C.,24 mass %
same,Solubility (mass %),[3]; 34.5 ° C.,25.6 mass %
same,Solubility (mass %),[3]; 39 ° C.,33.5 mass %
"COc1ccc2nc([S+]([O-])Cc3ncc(C)c(OC)c3C)[nH]c2n1 (stereo not shown) [tenatoprazole, 5-methoxy-2-[[(4-methoxy-3,5-dimethyl-2-pyridyl)methyl]sulfinyl]imidazo[4,5-b]pyridine]",duration of action,[1]; [6],markedly longer duration of action
same,plasmatic half-life,[1]; [6],about seven times greater
same,level of relief of the symptoms and of cicatrization of gastric lesions,gastric lesions,greater level of relief of the symptoms and of cicatrization of gastric lesions
COc1ccc2[nH]c([S+]([O-])Cc3ncc(C)c(OC)c3C)nc2n1.O.[Na] (stereo not shown) [S-tenatoprazole sodium salt monohydrate],solubility,[4],excellent solubility
"COc1ccc2nc([S+]([O-])Cc3ncc(C)c(OC)c3C)[n-]c2n1.[K+] (racemic) [racemic mixture of the potassium salt solvated with ethanol, potassium tenatoprazole diethanolate]",Solubility (mass %),[5]; 33.9 ° C.,4.24 mass %
same,Solubility (mass %),[5]; 37 ° C.,5.3 mass %
